# Measured values from patent US6066642A, “Dihydropyridine-, pyridine-, benzopyran-4-one- and triazoloquinazoline derivative, their preparation and their use as adenosine receptor antagonists” (priority 1998, dated 2000).
# Where two headings read alike, the source gives them in different places.
# Tests used:
# human A3 receptors = target: T1, human A3 receptors (Homo sapiens, UniProt P0DMS8); test: radioligand binding, displacement of specific [125I]AB-MECA binding at human A3 receptors expressed in HEK-293 cells; conditions: for inhibition at 100 µM: 10^-4 M
# T1 construct: expressed in transfected cells; host or cells: HEK-293 cells (membranes)
# T1 sequence (P0DMS8 1-318): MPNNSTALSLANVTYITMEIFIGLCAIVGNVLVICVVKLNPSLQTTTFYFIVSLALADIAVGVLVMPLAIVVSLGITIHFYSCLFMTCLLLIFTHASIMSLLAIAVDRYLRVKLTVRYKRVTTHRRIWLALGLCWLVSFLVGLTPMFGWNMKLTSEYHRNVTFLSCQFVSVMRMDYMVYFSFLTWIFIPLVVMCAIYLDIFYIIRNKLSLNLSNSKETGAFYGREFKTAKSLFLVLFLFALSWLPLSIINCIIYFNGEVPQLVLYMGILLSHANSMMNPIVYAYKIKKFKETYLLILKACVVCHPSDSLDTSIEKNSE
# Method: A3 receptors expressed in HEK293 cells, in membranes, expressed as
# binding displaced at 100 μM.
# A2a receptors = target: T2, A2a receptors (Rattus norvegicus, UniProt P30543); test: radioligand binding, displacement of specific [3H]CGS 21680 binding in rat striatal membranes; conditions: for inhibition at 100 µM: 10^-4 M; for Ki: [3H]CGS 21680, rat striatal membranes
# T2 construct: Displacement of specific [^3 H]; from tissue; host or cells: rat striatal membranes
# T2 sequence (P30543 whole entry): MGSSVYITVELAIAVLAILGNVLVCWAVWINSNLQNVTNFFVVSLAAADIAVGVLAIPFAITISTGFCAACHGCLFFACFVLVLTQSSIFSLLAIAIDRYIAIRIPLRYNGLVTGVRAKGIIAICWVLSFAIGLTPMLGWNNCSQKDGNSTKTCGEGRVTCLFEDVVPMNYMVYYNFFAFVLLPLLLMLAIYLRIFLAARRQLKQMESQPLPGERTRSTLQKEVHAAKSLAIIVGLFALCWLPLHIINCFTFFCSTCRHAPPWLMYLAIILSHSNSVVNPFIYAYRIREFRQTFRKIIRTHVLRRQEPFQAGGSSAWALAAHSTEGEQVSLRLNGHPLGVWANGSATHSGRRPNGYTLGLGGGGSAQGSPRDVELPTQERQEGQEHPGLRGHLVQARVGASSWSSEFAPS
# Method: ^b Displacement of specific [^3 H]
# or as a percentage of specific binding displaced at 100 μM.
# A1 receptors = target: T3, A1 receptors (Rattus norvegicus, UniProt P25099); test: biochemical; type: binding; conditions: for inhibition at 100 µM: 10^-4 M; for Ki: [3H]PIA, rat brain membranes, read-out: Ki rA1
# T3 sequence (P25099 1-326): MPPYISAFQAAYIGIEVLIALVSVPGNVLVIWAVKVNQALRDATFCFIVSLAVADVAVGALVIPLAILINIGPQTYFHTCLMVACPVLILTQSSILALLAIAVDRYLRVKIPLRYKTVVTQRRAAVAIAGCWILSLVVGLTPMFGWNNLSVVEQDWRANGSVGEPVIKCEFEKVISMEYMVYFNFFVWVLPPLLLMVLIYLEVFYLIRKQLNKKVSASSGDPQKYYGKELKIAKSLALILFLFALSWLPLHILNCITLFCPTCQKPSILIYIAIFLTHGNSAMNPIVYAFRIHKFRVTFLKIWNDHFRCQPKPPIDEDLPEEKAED
# Method: ^a Displacement of specific [^3 H] PIA binding in rat brain
# percentage of specific binding displaced at 100 μM.
# [1] = Table 15, [125I]AB-MECA, HEK membranes, read-out: Ki hA3
# [2] = Table 12, read-out: % inhibition rA2A
# [3] = Table 12, read-out: % inhibition rA1
# [4] = Table 12, [125I]AB-MECA, HEK membranes, read-out: Ki hA3
# [5] = Table 7, read-out: % of specific binding displaced hA3
# [6] = Table 11, read-out: % inhibition rA2A
# [7] = Table 11, read-out: % inhibition rA1
# [8] = Table 11, read-out: displacement of specific binding rA2A
# [9] = Table 11, [125I]AB-MECA, HEK membranes, read-out: Ki hA3
# [10] = Table 11, read-out: displacement of specific binding rA1
# [11] = Table 16, [125I]AB-MECA, HEK membranes, read-out: Ki hA3
compound,measurement,setting,value
"9-Chloro-2-(2-furyl)-5-(4'-iodobenzoyl)amino[1,2,4]triazolo [1,5-c]quinazoline [Compound 152]",Ki,human A3 receptors; [1],0.0238 ± 0.0052 µM
"CCOC(=O)C1=C(C)NC(c2ccccc2)=C(C(=O)O)C1C#Cc1ccccc1 (racemic) [Compound 131, 3-Ethoxycarbonyl-2-methyl-4-phenylethynyl-6-phenyl-1,4(±)-dihydropyridine-5-carboxylic acid]",inhibition at 10 µM,"human A3 receptors; Table 12, 10^-5 M, read-out: displacement of specific binding hA3",< 10%
same,inhibition at 100 µM,A2a receptors; [2],16 ± 6%
"CCOCN1C(C)=C(C(=O)OCC)C(C#Cc2ccccc2)C(C(=O)OCC[Si](C)(C)C)=C1c1ccccc1 (racemic) [Compound 138, 1-Ethoxymethyl 3-ethyl 5-(2-trimethylsilyl)-ethyl 2-methyl-4-phenylethynyl-6-phenyl-1,4-(±)-dihydropyridine-3,5-dicarboxylate]",inhibition at 100 µM,A2a receptors; [2],19%
same,inhibition at 100 µM,A1 receptors; [3],13 ± 3%
"CCOCN1C(C)=C(C(=O)OCC)C(C#Cc2ccccc2)C(C(=O)O)=C1c1ccccc1 (racemic) [Compound 139, 1-Ethoxymethyl-3-ethoxycarbonyl-2-methyl-4-phenylethynyl-6-phenyl-1,4-(±)-dihydropyridine-5-carboxylic acid]",rA1/hA3,human A3 receptors,> 1
same,Ki,human A3 receptors; [4],> 100 µM
same,inhibition at 100 µM,A2a receptors; [2],36 ± 7%
"O=C1c2ccccc2O[C@H](c2ccccc2O)[C@H]1O (relative stereo) [Compound 14, reference compound]",inhibition at 100 µM,"human A3 receptors; Table 4, read-out: % of specific binding displaced hA3",27 ± 3%
same,rA1/hA3,"human A3 receptors; Table 4, ratio of Ki",< 1
same,inhibition at 100 µM,"A2a receptors; Table 4, read-out: displacement of specific binding rA2a",< 10%
"COc1cc(OC)c2c(=O)c(OC)c(-c3ccccc3)oc2c1 [Compound 2, 3,5,7-Trimethoxyflavone]",Ki,"A2a receptors; Table 3, read-out: Ki rA2a",6.45 ± 1.48 µM
same,Ki,A1 receptors; Table 3,0.509 ± 0.049 µM
"O=c1c(O)c(-c2ccc(O)cc2O)oc2cc(O)cc(O)c12 [Compound 5a, 2',3,4',5,7-pentahydroxyflavone, reference compound]",Ki,"A2a receptors; Table 3, read-out: Ki rA2a",17.3 µM
same,Ki,A1 receptors; Table 3,13.8 µM
"CCOc1ccc(-c2oc3cc(OCC)cc(OCC)c3c(=O)c2OCC)c(OCC)c1 [Compound 8, 2',3,4',5,7-Pentaethoxyflavone]",Ki,"human A3 receptors; Table 3, [125I]AB-MECA, HEK-293 membranes, read-out: Ki hA3",7.27 ± 1.88 µM
same,Ki,"A2a receptors; Table 3, read-out: Ki rA2a",26.8 µM
"O=c1cc(-c2ccccc2)oc2ccccc12 [Compound 11a, flavone, reference compound]",Ki,"A2a receptors; Table 3, read-out: Ki rA2a",3.45 ± 1.16 µM
same,Ki,A1 receptors; Table 3,3.28 ± 0.92 µM
"O=C1CC(c2ccccc2O)Oc2ccccc21 (stereo not drawn) [Compound 13, reference compound]",Ki,"A2a receptors; Table 4, read-out: Ki rA2a",17.6 ± 2.1 µM
same,Ki,A1 receptors; Table 4,2.64 ± 0.56 µM
"COc1c2ccoc2cc2oc(C)cc(=O)c12 [Compound 17, 4-methoxy-7-methyl-5H-furo[3,2-g][1]-benzopyrano-5-one, reference compound]",Ki,"A2a receptors; Table 5, read-out: Ki rA2a",42.4 ± 11.9 µM
same,inhibition at 100 µM,"A1 receptors; Table 5, read-out: % of specific binding displaced rA1",36 ± 3%
"CCCOc1c2ccoc2cc2oc(/C=C/c3ccccc3)cc(=O)c12 [Compound 21, 4-propyloxy-7-trans-styryl-visnagin]",Ki,"human A3 receptors; Table 5, [125I]AB-MECA, HEK-293 membranes, read-out: Ki hA3",3.95 µM
"O=c1cc(-c2ccccc2)oc2cccc(O)c12 [Compound 25, reference compound]",inhibition at 100 µM,"human A3 receptors; Table 6, read-out: % inhibition hA3",47 ± 12%
same,Ki,"A2a receptors; Table 6, read-out: K2 (rA2a)",6.2 ± 1.24 µM
"COc1cc(O)c2c(=O)c(O)c(-c3ccc(O)c(O)c3)oc2c1 [Compound 36, rhamnetin, reference compound]",Ki,"human A3 receptors; Table 6, [125I]AB-MECA, HEK-293 membranes, read-out: K2 (hA3)",1.38 ± 0.18 µM
"O=c1c(-c2ccc(O)cc2)coc2cc(O)cc(O)c12 [Compound 40, genistein, reference compound]",inhibition at 100 µM,human A3 receptors; [5],20 ± 2%
"COc1cc(O)c2c(c1)O[C@H](c1ccc(O)cc1)CC2=O [Compound 42, sakuranetin, reference compound]",Ki,"human A3 receptors; Table 7, [125I]AB-MECA, HEK-293 membranes, read-out: Ki (hA3)",3.4 ± 0.18 µM
COc1cc2c3c(oc(=O)c2cc1OC)CCCC3=O [Compound 45],inhibition at 100 µM,"human A3 receptors; Table 7, read-out: displacement of specific binding hA3",< 10%
same,Ki,"A2a receptors; Table 7, read-out: Ki (rA2A)",29.9 ± 10.1 µM
"O=C1c2ccccc2-c2cc3c(cc21)OCO3 [Compound 49, 2,3-methylenedioxy-fluorene-9-one]",inhibition at 100 µM,human A3 receptors; [5],52 ± 6%
same,Ki,"A2a receptors; Table 7, read-out: Ki (rA2A)",84 ± 6.9 µM
"COC(=O)C1=C(C)NC(C)=C(C(=O)OCCN(C)Cc2ccccc2)C1c1cccc([N+](=O)[O-])c1 (stereo not drawn) [Compound 63, reference compound]",Ki,"A2a receptors; Table 9, read-out: Ki rA2A",63.8 µM
same,Ki,A1 receptors; Table 9,19.6 µM
same,greater affinity to A1 than A2a adenosine receptors,A1 receptors; selectivity in words,greater affinity to A1 adenosine receptors than A2a receptors
CCOC(=O)C1=C(C)NC(c2ccccc2)=C(C(=O)OCC)C1/C=C/c1ccccc1 (stereo not drawn) [Compound 79],greater affinity for A3 than A1 or A2a adenosine receptors,human A3 receptors; selectivity in words,greater affinity for A3 adenosine receptors than A1 or A2a adenosine receptors
same,Ki,"A2a receptors; Table 9, read-out: Ki rA2A",4.77 ± 0.29 µM
CCOC(=O)C1=C(C)NC(c2ccccc2)=C(C(=O)OCc2ccccc2)C1/C=C/c1ccccc1 (stereo not drawn) [Compound 99],inhibition at 100 µM,A2a receptors; [6],15%
same,inhibition at 100 µM,A1 receptors; [7],35 ± 3%
CCOC(=O)C1=C(C)NC(c2ccccc2)=C(C(=O)OCc2ccccc2)C1/C=C/c1ccc([N+](=O)[O-])cc1 (stereo not drawn) [Compound 100],inhibition at 100 µM,A2a receptors; [8],< 10%
same,inhibition at 100 µM,A1 receptors; [7],33%
CCOC(=O)C1=C(C)NC(c2ccccc2)=C(C(=O)OCc2ccccc2)C1C#Cc1ccc([N+](=O)[O-])cc1 (stereo not drawn) [Compound 102],Ki,human A3 receptors; [9],< 0.1 µM
CCOC(=O)C1=C(C)NC(c2ccccc2)=C(C(=O)OCc2ccccc2)C1C#Cc1ccc(N)cc1 (stereo not drawn) [Compound 103],Ki,human A3 receptors; [9],< 0.1 µM
CCOC(=O)C1=C(C)NC(c2ccccc2)=C(C(=O)OCc2ccccc2)C1C#Cc1ccc(N)c(I)c1 (stereo not drawn) [Compound 104],Ki,human A3 receptors; [9],< 0.1 µM
CCOC(=O)C1=C(c2ccccc2)NC(C)=C(C(=O)OCc2ccccc2)C1/C=C/c1ccccc1 (stereo not drawn) [Compound 105],inhibition at 100 µM,A2a receptors; [6],16 ± 11%
same,inhibition at 100 µM,A1 receptors; [10],< 10%
CCOC(=O)C1=C(c2ccccc2)NC(C)=C(C(=O)OCc2ccccc2)C1/C=C/c1ccc([N+](=O)[O-])cc1 (stereo not drawn) [Compound 106],inhibition at 100 µM,A2a receptors; [8],< 10%
same,inhibition at 100 µM,A1 receptors; [10],< 10%
CCOC(=O)C1=C(c2ccccc2)NC(C)=C(C(=O)OCc2ccccc2)C1C#Cc1ccccc1 (stereo not drawn) [Compound 107],inhibition at 100 µM,A2a receptors; [8],< 10%
same,inhibition at 100 µM,A1 receptors; [7],24 ± 4%
C=CCOC(=O)C1=C(C)NC(c2ccccc2)=C(C(=O)OCC)C1/C=C/c1ccc([N+](=O)[O-])cc1 (stereo not drawn) [Compound 117],inhibition at 100 µM,A2a receptors; [2],15%
same,inhibition at 100 µM,"A1 receptors; Table 12, read-out: displacement of specific binding rA1",< 10%
CCOC(=O)C1=C(C)NC(c2ccccc2)=C(C(=O)OCC)C1/C=C/c1ccc([N+](=O)[O-])cc1 (stereo not drawn) [Compound 118],inhibition at 100 µM,A2a receptors; [2],26%
same,inhibition at 100 µM,A1 receptors; [3],31%
CCOC(=O)C1=C(C)NC(c2ccccc2)=C(C(=O)OCc2cccc(I)c2)C1C#Cc1ccccc1 (stereo not drawn) [Compound 122e],inhibition at 100 µM,A2a receptors; [2],19 ± 7%
same,inhibition at 100 µM,A1 receptors; [3],14%
CCOC(=O)C1=C(C)NC(c2ccccc2)=C(C(=O)OCc2ccc(C(=O)NCCN)cc2)C1C#Cc1ccccc1 (stereo not drawn) [Compound 123],Ki,human A3 receptors; [4],0.01 µM
"Nc1nc2ccc(Cl)cc2c2nc(-c3ccco3)nn12 [Compound 144, reference compound]",Ki,human A3 receptors; read-out: Ki hA3,0.0138 ± 0.0024 µM
"CC(C)(C)OC(=O)Nc1nc2ccc(Cl)cc2c2nc(-c3ccco3)nn12 [Compound 150, 5-[(tert.-Butoxycarbonyl)amino]-9-chloro-2-(2-furyl)[1,2,4]triazolo[1,5-c]quinazoline]",Ki,"A2a receptors; Table 15, read-out: Ki rA2A",0.092 ± 0.008 µM
same,Ki,A1 receptors; Table 15,0.19 ± 0.016 µM
Nc1nc2ccc(Cl)cc2c2nc(-c3ccc(Br)o3)nn12 [Compound 157],Ki,human A3 receptors; [1],0.054 ± 0.0131 µM
Nc1ccc(CC(=O)Nc2nc3ccc(Cl)cc3c3nc(-c4ccco4)nn23)cc1 [Compound 163],Ki,human A3 receptors; [11],0.004 µM
Nc1ccc(CC(=O)Nc2nc3ccc(Cl)cc3c3nc(-c4ccco4)nn23)cc1I [Compound 164],Ki,human A3 receptors; [11],0.001 µM
CCOC(=O)C1=C(c2ccccc2)NC(C)=C(C(=O)OCC2COC(C)(C)O2)C1C#Cc1ccccc1 (stereo not drawn) [Compound 209a],inhibition at 100 µM,"A2a receptors; Table 14, read-out: displacement of specific binding rA2A",< 10%
same,inhibition at 100 µM,"A1 receptors; Table 14, read-out: % inhibition rA1",32 ± 4%
